Laboratory results reported in patent US10457703B2, “Bile acid derivatives as FXR/TGR5 agonists and methods of use thereof” (ENANTA PHARMACEUTICALS, INC., priority 2015, dated 2019).
pEC50: −log10 of the molar value.

Target: human FXR (NR1H4) (Homo sapiens (Human), UniProt Q96RI1)
Assay: Human FXR (NR1H4) Assay (Gal4 promoter driven luciferase reporter, Indigo Bioscience kit);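 for Efficacy (%): 100% equals the efficacy of CDCA; efficacy normalized to CDCA set as 100%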
Type: cell-based
Conditions: for pEC50: Human FXR (NR1H4) Assay, potency ranges; for Emax: read-out: Efficacy (%)
Description: ASSAYS Human FXR (NR1H4) Assay
Determination of a ligand mediated Gal4 promoter driven transactivation to quantify ligand binding mediated activation of FXR. FXR Reporter Assay kit purchased from Indigo Bioscience (Catalogue number: IB00601) to determine the potency and efficacy of compound developed by Enanta that can induce FXR activation. The principle application of this reporter assay system is to quantify functional activity of human FXR. The assay utilizes non-human mammalian cells, CHO (Chinese hamster ovary) cells engineered to express human NR1H4 protein (referred to as FXR). Reporter cells also incorporate the cDNA encoding beetle luciferase which catalyzes the substrates and yields photon emission. Luminescence intensity of the reaction is quantified using a plate-reading luminometer, Envision. Reporter Cells include the luciferase reporter gene functionally linked to an FXR responsive promoter. Thus, quantifying changes in luciferase expression in the treated reporter cells provides a sensitive surrogate measure of the changes in FXR activity. […] The assay is according to the manufacturer's instructions. In brief, the assay was performed in white, 96 well plates using final volume of 100 uL containing cells with different doses of compounds. Retrieve Reporter Cells from −80° C. storage. Perform a rapid thaw of the frozen cells by transferring a 10 ml volume of 37° C. cell recovery medium into the tube of frozen cells. Recap the tube of Reporter Cells and immediately place it in a 37° C. water bath for 5-10 minutes. Retrieve the tube of Reporter Cell Suspension from the water bath. Sanitize the outside surface of the tube with a 70% alcohol swab, and then transfer it into the cell culture hood. Dispense 90 μl of cell suspension into each well of the 96-well Assay Plate. Transfer the plate into 37° C. incubator, allowing the cells adherent to the bottom of the well. Dilute compounds in Dilution Plate (DP), and administrate to cells at Assay Plate (AP). DMSO content of the samples was kept at 0.2%. Cells were incubated for additional 22 hours before luciferase activities were measured. Thirty minutes before intending to quantify FXR activity, remove Detection Substrate and Detection Buffer from the refrigerator and place them in a low-light area so that they may equilibrate to room temperature. Remove the plate's lid and discard all media contents by ejecting it into an appropriate waste container. Gently tap the inverted plate onto a clean absorbent paper towel to remove residual droplets. Cells will remain tightly adhered to well bottoms. Add 100 μl of luciferase detection reagent to each well of the assay plate. Allow the assay plate to rest at room temperature for at least 5 minutes following the addition of LDR. Set the instrument (Envision) to perform a single 5 second “plate shake” prior to reading the first assay well. Read time may be 0.5 second (500 mSec) per well.

Sequence of human FXR (NR1H4) (Q96RI1 whole entry, the tested form may be a part): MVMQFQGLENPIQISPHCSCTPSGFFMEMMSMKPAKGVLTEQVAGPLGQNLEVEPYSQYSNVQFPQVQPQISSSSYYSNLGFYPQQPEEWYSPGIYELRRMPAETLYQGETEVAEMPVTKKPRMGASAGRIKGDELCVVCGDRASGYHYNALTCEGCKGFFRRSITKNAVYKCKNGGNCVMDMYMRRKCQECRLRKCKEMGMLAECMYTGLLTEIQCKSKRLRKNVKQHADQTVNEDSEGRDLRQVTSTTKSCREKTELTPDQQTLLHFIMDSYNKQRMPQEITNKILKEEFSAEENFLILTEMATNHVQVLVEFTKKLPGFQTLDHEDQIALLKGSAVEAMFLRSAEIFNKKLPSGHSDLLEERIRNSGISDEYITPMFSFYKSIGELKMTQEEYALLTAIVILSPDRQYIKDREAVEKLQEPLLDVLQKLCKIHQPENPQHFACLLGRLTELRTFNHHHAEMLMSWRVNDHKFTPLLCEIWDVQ

Row | Compound | pEC50 | Emax [%]
1 | CC[C@H]1[C@@H](O)[C@@H]2[C@H](CC[C@]3(C)[C@@H]([C@H](C)CCOC(=O)NS(=O)(=O)c4ccccc4Cl)CC[C@@H]23)[C@@]2(C)CC[C@@H](O)C[C@@H]12 [Example 76] | 6.00 to 7.00 | 234
2 | CC[C@H]1[C@@H](O)[C@@H]2[C@H](CC[C@]3(C)[C@@H]([C@H](C)CCOC(=O)NS(=O)(=O)c4ccc(F)cc4)CC[C@@H]23)[C@@]2(C)CC[C@@H](O)C[C@@H]12 [Example 46] | > 7.00 | 267
3 | CC[C@H]1[C@@H](O)[C@@H]2[C@H](CC[C@]3(C)[C@@H]([C@H](C)CCOC(=O)N[C@H](C(=O)OC)C(C)C)CC[C@@H]23)[C@@]2(C)CC[C@@H](O)C[C@@H]12 [Example 154] | 6.00 to 7.00 | 138
4 | CC[C@H]1[C@@H](O)[C@@H]2[C@H](CC[C@]3(C)[C@@H]([C@H](C)CCOC(=O)N[C@H](C(=O)O)C(C)C)CC[C@@H]23)[C@@]2(C)CC[C@@H](O)C[C@@H]12 [Example 155] | 6.00 to 7.00 | 278
5 | CC[C@H]1[C@@H](O)[C@@H]2[C@H](CC[C@]3(C)[C@@H]([C@H](C)CCOC(=O)N[C@H]4CCC[C@H]4O)CC[C@@H]23)[C@@]2(C)CC[C@@H](O)C[C@@H]12 [Example 216] | 6.00 to 7.00 | 478
6 | CC[C@H]1[C@@H](O)[C@@H]2[C@H](CC[C@]3(C)[C@@H]([C@H](C)CCOC(=O)N4CC[C@@H](O)C4)CC[C@@H]23)[C@@]2(C)CC[C@@H](O)C[C@@H]12 [Example 215] | > 7.00 | 143
7 | CC[C@H]1[C@@H](O)[C@@H]2[C@H](CC[C@]3(C)[C@@H]([C@H](C)CCOC(=O)NC(C(C)C)C(C)C)CC[C@@H]23)[C@@]2(C)CC[C@@H](O)C[C@@H]12 [Example 176] | 5.00 to 6.00 | 368
8 | CC[C@H]1[C@@H](O)[C@@H]2[C@H](CC[C@]3(C)[C@@H]([C@H](C)COC(=O)NS(=O)(=O)c4ccc(N5CCOCC5)nc4)CC[C@@H]23)[C@@]2(C)CC[C@@H](O)C[C@@H]12 [Example 15] | > 7.00 | 197
9 | CC[C@H]1[C@@H](O)[C@@H]2[C@H](CC[C@]3(C)[C@@H]([C@H](C)CCOC(=O)NCC(C)(C)O)CC[C@@H]23)[C@@]2(C)CC[C@@H](O)C[C@@H]12 [Example 142] | 6.00 to 7.00 | 247
10 | CC[C@H]1[C@@H](O)[C@@H]2[C@H](CC[C@]3(C)[C@@H]([C@H](C)CCOC(=O)N4CCCCS4(=O)=O)CC[C@@H]23)[C@@]2(C)CC[C@@H](O)C[C@@H]12 [Example 104-e] | 6.00 to 7.00 | 239
11 | CC[C@H]1[C@@H](O)[C@@H]2[C@H](CC[C@]3(C)[C@@H]([C@H](C)COC(=O)NS(=O)(=O)c4ccc(-n5ccnc5)nc4)CC[C@@H]23)[C@@]2(C)CC[C@@H](O)C[C@@H]12 [Example 44-m] | > 7.00 | 206
12 | CC[C@H]1[C@@H](O)[C@@H]2[C@H](CC[C@]3(C)[C@@H]([C@H](C)CCOC(=O)NCCc4ccccn4)CC[C@@H]23)[C@@]2(C)CC[C@@H](O)C[C@@H]12 [Example 186] | 6.00 to 7.00 | 373
13 | CC[C@H]1[C@@H](O)[C@@H]2[C@H](CC[C@]3(C)[C@@H]([C@H](C)CCOC(=O)NCC(C)C)CC[C@@H]23)[C@@]2(C)CC[C@@H](O)C[C@@H]12 [Example 137] | 6.00 to 7.00 | 270
14 | CC[C@H]1[C@@H](O)[C@@H]2[C@H](CC[C@]3(C)[C@@H]([C@H](C)CCOC(=O)NS(=O)(=O)c4ccc(-c5ccccc5)s4)CC[C@@H]23)[C@@]2(C)CC[C@@H](O)C[C@@H]12 [Example 64] | 6.00 to 7.00 | 281
15 | CC[C@H]1[C@@H](O)[C@@H]2[C@H](CC[C@]3(C)[C@@H]([C@H](C)CCOC(=O)NS(=O)(=O)c4ccccc4F)CC[C@@H]23)[C@@]2(C)CC[C@@H](O)C[C@@H]12 [Example 71] | 6.00 to 7.00 | 317
16 | CC[C@H]1[C@@H](O)[C@@H]2[C@H](CC[C@]3(C)[C@@H]([C@H](C)CCOC(=O)NS(=O)(=O)c4cc(C(F)(F)F)cc(C(F)(F)F)c4)CC[C@@H]23)[C@@]2(C)CC[C@@H](O)C[C@@H]12 [Example 104-h] | 5.00 to 6.00 | 208

Row | Compound | pEC50 | Emax [%]
17 | CC[C@H]1[C@@H](O)[C@@H]2[C@H](CC[C@]3(C)[C@@H]([C@H](C)CCOC(=O)N4CCc5sccc5C4)CC[C@@H]23)[C@@]2(C)CC[C@@H](O)C[C@@H]12 [Example 173] | 6.00 to 7.00 | 209
18 | CC[C@H]1[C@@H](O)[C@@H]2[C@H](CC[C@]3(C)[C@@H]([C@H](C)CCOC(=O)NS(=O)(=O)c4cccc(C(F)(F)F)c4)CC[C@@H]23)[C@@]2(C)CC[C@@H](O)C[C@@H]12 [Example 78] | 6.00 to 7.00 | 365
19 | CC[C@H]1[C@@H](O)[C@@H]2[C@H](CC[C@]3(C)[C@@H]([C@H](C)CCCOC(=O)NS(=O)(=O)c4ccc(-c5ccccc5)cc4)CC[C@@H]23)[C@@]2(C)CC[C@@H](O)C[C@@H]12 [Example 116] | 5.00 to 6.00 | 294
20 | CC[C@H]1[C@@H](O)[C@@H]2[C@H](CC[C@]3(C)[C@@H]([C@H](C)CCOC(=O)NS(=O)(=O)c4ccncc4)CC[C@@H]23)[C@@]2(C)CC[C@@H](O)C[C@@H]12 [Example 73] | 5.00 to 6.00 | 352
21 | CC[C@H]1[C@@H](O)[C@@H]2[C@H](CC[C@]3(C)[C@@H]([C@H](C)CCOC(=O)NCC(=O)O)CC[C@@H]23)[C@@]2(C)CC[C@@H](O)C[C@@H]12 [Example 157] | 5.00 to 6.00 | 178
22 | CC[C@H]1[C@@H](O)[C@@H]2[C@H](CC[C@]3(C)[C@@H]([C@H](C)CCOC(=O)NCc4ccc(O)cc4)CC[C@@H]23)[C@@]2(C)CC[C@@H](O)C[C@@H]12 [Example 158] | 6.00 to 7.00 | 240
23 | CC[C@H]1[C@@H](O)[C@@H]2[C@H](CC[C@]3(C)[C@@H]([C@H](C)CCOC(=O)NC4CCCC4)CC[C@@H]23)[C@@]2(C)CC[C@@H](O)C[C@@H]12 [Example 134] | 6.00 to 7.00 | 267
24 | CC[C@H]1[C@@H](O)[C@@H]2[C@H](CC[C@]3(C)[C@@H]([C@H](C)CCOC(=O)NS(=O)(=O)c4ccc(OCC(F)(F)F)cc4)CC[C@@H]23)[C@@]2(C)CC[C@@H](O)C[C@@H]12 [Example 101] | 6.00 to 7.00 | 289
25 | CC[C@H]1[C@@H](O)[C@@H]2[C@H](CC[C@]3(C)[C@@H]([C@H](C)CCOC(=O)NCCc4c[nH]c5ccccc45)CC[C@@H]23)[C@@]2(C)CC[C@@H](O)C[C@@H]12 [Example 141] | 6.00 to 7.00 | 293
26 | CC[C@H]1[C@@H](O)[C@@H]2[C@H](CC[C@]3(C)[C@@H]([C@H](C)COC(=O)NS(=O)(=O)C4CCCCC4)CC[C@@H]23)[C@@]2(C)CC[C@@H](O)C[C@@H]12 [Example 8] | 6.00 to 7.00 | 327
27 | CC[C@H]1[C@@H](O)[C@@H]2[C@H](CC[C@]3(C)[C@@H]([C@H](C)COC(=O)NS(=O)(=O)c4cccc(O)c4)CC[C@@H]23)[C@@]2(C)CC[C@@H](O)C[C@@H]12 [Example 38] | 6.00 to 7.00 | 203
28 | CC[C@H]1[C@@H](O)[C@@H]2[C@H](CC[C@]3(C)[C@@H]([C@H](C)CCOC(=O)NS(=O)(=O)N4CCCCC4)CC[C@@H]23)[C@@]2(C)CC[C@@H](O)C[C@@H]12 [Example 69] | > 7.00 | 368
29 | CC[C@H]1[C@@H](O)[C@@H]2[C@H](CC[C@]3(C)[C@@H]([C@H](C)CCOC(=O)NCCCCCO)CC[C@@H]23)[C@@]2(C)CC[C@@H](O)C[C@@H]12 [Example 174] | > 7.00 | 228
30 | CC[C@H]1[C@@H](O)[C@@H]2[C@H](CC[C@]3(C)[C@@H]([C@H](C)COC(=O)NS(=O)(=O)c4ccc(N5CCCCC5=O)cc4)CC[C@@H]23)[C@@]2(C)CC[C@@H](O)C[C@@H]12 [Example 18] | > 7.00 | 221
31 | CC[C@H]1[C@@H](O)[C@@H]2[C@H](CC[C@]3(C)[C@@H]([C@H](C)COC(=O)NC4CCCCC4)CC[C@@H]23)[C@@]2(C)CC[C@@H](O)C[C@@H]12 [Example 199] | 5.00 to 6.00 | 14
